Assay results taken from patent US20200216417A1, “INHIBITORS OF FIBROBLAST ACTIVATION PROTEIN” (Praxis Biotech LLC, priority 2019, published 2020).
Like-named read-outs stand apart in the source and are kept apart here.

Key:
Format in all cases: biochemical
[1] = molecular target: T1, recombinant human DPP9 (rhDPP9) (Homo sapiens, UniProt Q86TI2); assay: DPP9 inhibition assay, 10 ng rhDPP9, Tris-HCl/BSA buffer; details: Table 3B
T1 construct: purchased R&S system / R&D systems (both sic) 5419-SE
T1 sequence (Q86TI2 whole entry): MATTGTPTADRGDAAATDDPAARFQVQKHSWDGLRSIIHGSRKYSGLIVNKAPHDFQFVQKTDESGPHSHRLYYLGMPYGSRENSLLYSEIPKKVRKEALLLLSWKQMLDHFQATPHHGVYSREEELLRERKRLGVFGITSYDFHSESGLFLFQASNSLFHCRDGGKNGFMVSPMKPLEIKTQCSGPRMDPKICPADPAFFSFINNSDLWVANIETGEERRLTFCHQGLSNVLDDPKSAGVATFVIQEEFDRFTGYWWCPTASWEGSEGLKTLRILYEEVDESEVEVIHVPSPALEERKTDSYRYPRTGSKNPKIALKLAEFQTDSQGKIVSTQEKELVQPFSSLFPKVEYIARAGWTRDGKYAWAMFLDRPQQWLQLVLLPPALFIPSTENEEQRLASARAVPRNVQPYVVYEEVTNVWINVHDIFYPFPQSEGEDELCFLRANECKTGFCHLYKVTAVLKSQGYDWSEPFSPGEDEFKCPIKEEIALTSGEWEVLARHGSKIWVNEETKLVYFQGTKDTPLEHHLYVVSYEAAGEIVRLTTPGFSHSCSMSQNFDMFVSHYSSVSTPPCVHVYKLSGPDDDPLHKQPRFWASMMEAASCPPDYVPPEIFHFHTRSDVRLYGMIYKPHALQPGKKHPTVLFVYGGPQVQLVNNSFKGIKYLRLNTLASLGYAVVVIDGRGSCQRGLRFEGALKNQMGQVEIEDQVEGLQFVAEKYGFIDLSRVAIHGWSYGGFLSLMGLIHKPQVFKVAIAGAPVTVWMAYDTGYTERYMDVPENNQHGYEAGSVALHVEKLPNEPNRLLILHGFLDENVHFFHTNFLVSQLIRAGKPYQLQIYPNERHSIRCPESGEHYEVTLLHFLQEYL

[2] = molecular target: T1, recombinant human DPP9 (rhDPP9); assay: DPP9 enzymatic activity assay, 40 ng rhDPP9, HEPES buffer; details: Table 3A
[3] = molecular target: T2, recombinant human FAPα (rhFAPα) (Homo sapiens, UniProt Q12884); assay: FAPα enzymatic exopeptidase (dipeptidase) activity assay, Z-Gly-Pro-AMC; details: for inhibition at 1 µM: exopeptidase inhibition at 1 μM test compound
T2 construct: purchased R&S system (so in the source)
T2 sequence (Q12884 1-760): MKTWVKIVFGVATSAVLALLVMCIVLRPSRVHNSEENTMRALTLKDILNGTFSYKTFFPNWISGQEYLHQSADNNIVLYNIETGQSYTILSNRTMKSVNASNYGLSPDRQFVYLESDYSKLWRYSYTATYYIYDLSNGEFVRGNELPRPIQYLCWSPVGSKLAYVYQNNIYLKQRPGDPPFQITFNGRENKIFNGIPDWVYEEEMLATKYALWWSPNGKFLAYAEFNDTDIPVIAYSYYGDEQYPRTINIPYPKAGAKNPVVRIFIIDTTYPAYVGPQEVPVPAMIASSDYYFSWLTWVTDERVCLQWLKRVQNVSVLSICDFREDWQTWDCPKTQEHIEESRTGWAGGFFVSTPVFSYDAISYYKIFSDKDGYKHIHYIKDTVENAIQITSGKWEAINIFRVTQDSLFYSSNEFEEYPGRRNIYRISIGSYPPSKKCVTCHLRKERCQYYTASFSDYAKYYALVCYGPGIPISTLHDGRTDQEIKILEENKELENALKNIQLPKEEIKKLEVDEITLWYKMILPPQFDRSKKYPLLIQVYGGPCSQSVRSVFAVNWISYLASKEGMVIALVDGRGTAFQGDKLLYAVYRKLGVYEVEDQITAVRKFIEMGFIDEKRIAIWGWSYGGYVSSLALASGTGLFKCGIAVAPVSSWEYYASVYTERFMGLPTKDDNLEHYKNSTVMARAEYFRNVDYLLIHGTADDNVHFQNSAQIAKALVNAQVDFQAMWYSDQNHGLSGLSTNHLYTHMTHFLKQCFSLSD

[4] = molecular target: T3, recombinant human PREP (rhPREP) (Homo sapiens, UniProt P48147); assay: PREP enzymatic activity assay, Z-Gly-Pro-AMC; details: Table 3B
T3 sequence (P48147 1-710): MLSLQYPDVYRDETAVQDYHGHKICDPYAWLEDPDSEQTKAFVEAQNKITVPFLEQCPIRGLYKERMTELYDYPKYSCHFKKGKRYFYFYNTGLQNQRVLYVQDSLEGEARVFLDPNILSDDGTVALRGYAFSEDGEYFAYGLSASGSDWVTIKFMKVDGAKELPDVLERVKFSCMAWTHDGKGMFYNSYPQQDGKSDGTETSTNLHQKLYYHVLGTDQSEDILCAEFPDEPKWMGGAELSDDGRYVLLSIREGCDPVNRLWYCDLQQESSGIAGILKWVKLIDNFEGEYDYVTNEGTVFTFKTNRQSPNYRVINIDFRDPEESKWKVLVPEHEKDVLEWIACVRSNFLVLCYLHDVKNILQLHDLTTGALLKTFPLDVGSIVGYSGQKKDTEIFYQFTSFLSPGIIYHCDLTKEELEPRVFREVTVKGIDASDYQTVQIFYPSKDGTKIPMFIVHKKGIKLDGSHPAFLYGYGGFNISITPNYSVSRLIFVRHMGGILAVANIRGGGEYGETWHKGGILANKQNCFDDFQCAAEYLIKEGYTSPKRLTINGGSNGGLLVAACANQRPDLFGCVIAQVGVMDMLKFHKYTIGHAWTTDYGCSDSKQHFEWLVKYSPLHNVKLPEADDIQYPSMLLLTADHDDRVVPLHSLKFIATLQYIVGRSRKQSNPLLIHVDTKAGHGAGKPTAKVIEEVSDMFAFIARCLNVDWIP

[5] = molecular target: T4, recombinant human DPPIV (rhDPPIV) (Homo sapiens, UniProt P27487); assay: DPPIV enzymatic activity assay, H-Gly-Pro-pNA; details: Table 3B
T4 construct: purchased R&S system (so in the source)
T4 sequence (P27487 whole entry): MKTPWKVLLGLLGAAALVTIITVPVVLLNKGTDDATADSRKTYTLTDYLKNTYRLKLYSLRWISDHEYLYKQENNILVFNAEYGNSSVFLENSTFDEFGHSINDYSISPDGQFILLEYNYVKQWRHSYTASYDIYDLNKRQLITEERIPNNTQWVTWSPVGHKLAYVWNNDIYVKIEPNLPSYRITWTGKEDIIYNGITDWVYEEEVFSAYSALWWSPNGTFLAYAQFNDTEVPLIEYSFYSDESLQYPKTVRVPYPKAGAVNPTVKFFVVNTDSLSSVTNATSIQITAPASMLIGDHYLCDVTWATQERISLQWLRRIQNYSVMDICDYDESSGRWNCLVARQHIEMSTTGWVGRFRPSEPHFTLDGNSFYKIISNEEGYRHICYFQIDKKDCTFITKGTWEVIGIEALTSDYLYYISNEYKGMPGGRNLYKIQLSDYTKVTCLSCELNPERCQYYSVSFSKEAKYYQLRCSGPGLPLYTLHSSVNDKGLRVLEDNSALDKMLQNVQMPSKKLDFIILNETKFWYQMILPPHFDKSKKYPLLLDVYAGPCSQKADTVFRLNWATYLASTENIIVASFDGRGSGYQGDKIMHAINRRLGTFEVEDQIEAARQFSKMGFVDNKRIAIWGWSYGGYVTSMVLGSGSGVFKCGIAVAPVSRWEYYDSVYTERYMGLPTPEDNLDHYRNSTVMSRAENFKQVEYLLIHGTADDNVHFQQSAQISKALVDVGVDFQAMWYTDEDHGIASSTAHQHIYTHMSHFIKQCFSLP

[6] = Table 3B, read-out: rhFAPα % exo inh @ 1 μM

SMILES | IC50 [1] [nM] | IC50 [2] [nM] | IC50 ([3]; Table 3B, read-out: rhFAP IC50) [nM] | inhibition at 1 µM ([3]; Table 2, read-out: rhFAPα (% exo inh @ 1 μM)) [%] | inhibition at 1 µM [3, 6] [%] | IC50 ([3]; exopeptidase, Table 2, read-out: rhFAPα (exo IC50)) [nM] | IC50 ([3]; exopeptidase, Table 3A, read-out: rhFAPα (exo IC50)) [nM] | IC50 [4] [nM] | IC50 [5] [nM]
N#C[C@@H]1CC(F)(F)CN1C(=O)CNC(=O)c1ccnc(N2CCN(C(c3ccc(F)cc3)c3ccc(F)cc3)CC2)c1 [Compound 6, (S)-2-(4-(bis(4-fluorophenyl)methyl)piperazin-1-yl)-N-(2-(2-cyano-4,4-difluoropyrrolidin-1-yl)-2-oxoethyl)isonicotinamide] | 1000 to 10000 | 1000 to 10000 | < 1000 | > 50 | > 50 | < 1000 | < 1000 | – | –
C/C(=C\c1cnccc1C(=O)NCC(=O)N1CC(F)(F)C[C@H]1C#N)c1ccc(OC(F)(F)F)cc1 [Compound 19] | 1000 to 10000 | – | < 1000 | – | > 50 | – | – | > 10000 | > 10000
C/C(=C\c1cnccc1C(=O)NCC(=O)N1CC(F)(F)C[C@H]1C#N)c1ccc(C(F)(F)F)cc1 [Compound 20] | 1000 to 10000 | – | < 1000 | – | > 50 | – | – | > 10000 | > 10000
N#C[C@@H]1CC(F)(F)CN1C(=O)CNC(=O)c1ccncc1/C=C/c1ccc(C(F)(F)F)cc1 [Compound 24] | 1000 to 10000 | – | < 1000 | – | > 50 | – | – | > 10000 | 1000 to 10000
C/C(=C\c1cnccc1C(=O)NCC(=O)N1CC(F)(F)C[C@H]1C#N)c1ccc(Cl)cc1 [Compound 26] | < 1000 | – | < 1000 | – | > 50 | – | – | > 10000 | > 10000
COc1ccc(/C(C)=C/c2cnccc2C(=O)NCC(=O)N2CC(F)(F)C[C@H]2C#N)cc1 [Compound 29] | 1000 to 10000 | – | < 1000 | – | > 50 | – | – | > 10000 | > 10000
N#C[C@@H]1CC(F)(F)CN1C(=O)CNC(=O)c1ccncc1/C=C/c1ccc(OC(F)(F)F)cc1 [Compound 33] | < 1000 | – | < 1000 | – | > 50 | – | – | > 10000 | > 10000
N#C[C@@H]1CC(F)(F)CN1C(=O)CNC(=O)c1ccnc2ccc(-c3ccc(C(F)(F)F)cc3)cc12 [Compound 35] | < 1000 | – | < 1000 | – | > 50 | – | – | > 10000 | > 10000
COc1ccc(C#Cc2cnccc2C(=O)NCC(=O)N2CC(F)(F)C[C@H]2C#N)cc1 [Compound 36] | > 10000 | – | < 1000 | – | > 50 | – | – | > 10000 | > 10000
N#C[C@@H]1CC(F)(F)CN1C(=O)CNC(=O)c1ccncc1C#Cc1ccc(Cl)cc1 [Compound 37] | > 10000 | – | < 1000 | – | > 50 | – | – | > 10000 | > 10000
N#C[C@@H]1CC(F)(F)CN1C(=O)CNC(=O)c1ccnc2ccc(-c3ccc(C(F)(F)F)nc3)cc12 [Compound 38] | < 1000 | – | < 1000 | – | > 50 | – | – | > 10000 | > 10000
C/C(=C\c1ccc2nccc(C(=O)NCC(=O)N3CC(F)(F)C[C@H]3C#N)c2c1)c1ccc(Cl)cc1 [Compound 39] | < 1000 | – | < 1000 | – | > 50 | – | – | > 10000 | > 10000
N#C[C@@H]1CC(F)(F)CN1C(=O)CNC(=O)c1ccnc2ccc(/C=C/c3ccc4cc(Cl)ccc4c3)cc12 [Compound 42] | < 1000 | – | < 1000 | – | > 50 | – | – | > 10000 | > 10000
COc1ccc(/C=C/c2ccc3nccc(C(=O)NCC(=O)N4CC(F)(F)C[C@H]4C#N)c3c2)cn1 [Compound 43] | < 1000 | – | < 1000 | – | > 50 | – | – | > 10000 | > 10000
N#C[C@@H]1CC(F)(F)CN1C(=O)CNC(=O)c1ccnc2ccc(/C=C/c3ccc(OC(F)(F)F)cc3)cc12 [Compound 48] | < 1000 | – | < 1000 | – | > 50 | – | – | > 10000 | > 10000
Cc1ccc(/C=C/c2ccc3nccc(C(=O)NCC(=O)N4CC(F)(F)C[C@H]4C#N)c3c2)nc1 [Compound 49] | < 1000 | – | < 1000 | – | > 50 | – | – | – | –
CC(C)(C)c1ccc(/C=C/c2ccc3nccc(C(=O)NCC(=O)N4CC(F)(F)C[C@H]4C#N)c3c2)cc1 [Compound 50] | 1000 to 10000 | – | < 1000 | – | > 50 | – | – | – | –
N#C[C@@H]1CC(F)(F)CN1C(=O)CNC(=O)c1ccnc2ccc(/C=C/c3ccc(C(F)(F)F)cc3)cc12 [Compound 51] | < 1000 | – | < 1000 | – | > 50 | – | – | – | –
CN1CCN(c2ccc(-c3ccc4nccc(C(=O)NCC(=O)N5CC(F)(F)C[C@H]5C#N)c4c3)cn2)CC1 [Compound 52] | 1000 to 10000 | – | < 1000 | – | > 50 | – | – | – | –
C[C@H](Nc1cnccc1C(=O)NCC(=O)N1CC(F)(F)C[C@H]1C#N)c1ccc(F)cc1 [Compound 190] | – | – | < 1000 | – | > 50 | – | – | – | > 10000
C[C@@H](Nc1cnccc1C(=O)NCC(=O)N1CC(F)(F)C[C@H]1C#N)c1ccc(F)cc1 [Compound 191] | – | – | < 1000 | – | > 50 | – | – | 1000 to 10000 | > 10000
CC(C)(O)c1ccc(-c2ccc3nccc(C(=O)NCC(=O)N4CC(F)(F)C[C@H]4C#N)c3c2)cc1 [Compound 195] | – | – | < 1000 | – | > 50 | – | – | > 10000 | > 10000
